Laboratory results: US12391691B2, “Synthesis of key intermediate of KRAS G12C inhibitor compound” (Amgen Inc., priority 2018, dated 2025)
Values after ≈ are worked out from the molar mass of the structure shown.

Key:
physchem = conditions: organic solvent or mixture, thermodynamic from solid
[1] = 5-day equilibrium solubility of M/P-Dione (ternary phase diagram); conditions: 2-MeTHF/n-heptane (1.4:1, v/v), RT, 5 days; for Solid XRPD: residual solid
[2] = #3: 20.2 mg M-Dione + 119.3 mg P-Dione
[3] = #4: 89.8 mg M-Dione + 90.3 mg P-Dione
[4] = #5: 121.1 mg M-Dione + 40.7 mg P-Dione
[5] = #6: 90.2 mg M-Dione + 19.5 mg P-Dione
[6] = #7: 41.6 mg M-Dione + 39.9 mg P-Dione
[7] = #8: 39.2 mg M-Dione + 120.3 mg P-Dione
[8] = #9: 119.1 mg M-Dione + 20.5 mg P-Dione

O=C(O[C@H](C(=O)O)[C@H](OC(=O)c1ccccc1)C(=O)O)c1ccccc1 [DBTA, (+)-2,3-dibenzoyl-D-tartaric acid]
solubility at 5 days (physchem; 20 °C): 99.1 mg/mL (≈ 277 mM) | solubility at 5 days (physchem; 30 °C): 100 mg/mL (≈ 280 mM) | solubility at 5 days (physchem; 40 °C): 98.9 mg/mL (≈ 276 mM) | solubility at 5 days (physchem; 50 °C): 88 mg/mL (≈ 246 mM) | solubility at 5 days (physchem; 60 °C): 105 mg/mL (≈ 293 mM) | solubility at 5 days (physchem; 65 °C): 96.1 mg/mL (≈ 268 mM) | solubility at 5 days (physchem): ~100 mg/mL (≈ 279 mM)

Cc1ccnc(C(C)C)c1-n1c(=O)[nH]c(=O)c2cc(F)c(Cl)nc21 [M/P-Dione]
Solid de [1, 2]: −69.2% | Supernatant [M]/[P] [1, 2]: 0.2 | Supernatant de [1, 2]: −73.6% | Solid XRPD [1, 2]: A + RD | Solid de [1, 3]: 0.6% | Supernatant [M]/[P] [1, 3]: 0.9 | Supernatant de [1, 3]: −3.9% | Solid de [1, 4]: 27.0% | Supernatant [M]/[P] [1, 4]: 33.4 | Supernatant de [1, 4]: 94.2% | Solid XRPD [1, 4]: A + RC | Solid de [1, 5]: 35.0% | Supernatant [M]/[P] [1, 5]: 37.6 | Supernatant de [1, 5]: 94.8% | Solid XRPD [1, 5]: A + RC | Solid de [1, 6]: 1.4% | Supernatant [M]/[P] [1, 6]: 1.1 | Supernatant de [1, 6]: 4.4% | Solid de [1, 7]: −39.1% | Supernatant [M]/[P] [1, 7]: 0.2 | Supernatant de [1, 7]: −72.8% | Solid XRPD [1, 7]: A + RD | Solid de [1, 8]: 54.9% | Supernatant [M]/[P] [1, 8]: 34.5 | Supernatant de [1, 8]: 94.4% | Solid XRPD [1, 8]: A + RC
